Measured values published in article PMC4494927, “Discovery of a small molecule targeting SET-PP2A interaction to overcome BCR-ABLT315I mutation of chronic myeloid leukemia” (Oncotarget, 2015).

Columns and labels:
[1] = system: BaF3-p210^T315I cells; experiment: Cytotoxicity assay (CellTiter-Glo); format: cell-based, murine; conditions: Mus musculus; TKI-resistant BaF3-p210^T315I cells, cell viability
Description: Twenty types of tumor cell lines were seeded at 4000 cells per well in 96-well plates. TGI1002 dissolved in phosphate saline was added to cells at final concentrations ranging from 0.5 nM to 100 μM for 120 h. Cell viability was measured with the CellTiter-Glo Luminescent Cell Viability Assay (Promega) according to the manufacturer's instructions. Luminescence was measured using an EnVision Multilabel Plate Reader (Perkin-Elmer). The cytotoxicity of TGI1002 was expressed as the percentage of luminescence relative to that of untreated cells.

[2] = biological target: ABL1 (Homo sapiens, UniProt P00519); experiment: In vitro kinase assay (Kinase-Glo / ADP-Glo); format: biochemical; conditions: TGI1002 1 µM; means of two independent experiments; read-out: Inhibitory effect (%)
Description: (§1) All kinase reactions were carried out in 384-well plates. After addition of the compounds, kinase and ATP-substrate were added to the assay plates successively, the assay plates were centrifuged at 1,000 x g for 1 min and incubated for 1 h at 30 °C. Then, Kinase-Glo Plus or ADP-Glo reagent was added to each well. In Kinase-Glo assay, after addition of the reagent for 20 min, the luminescence was measured on an EnVision Multilabel Plate Reader (Perkin-Elmer). In ADP-Glo assay, after addition of the reagent for 40 min, Kinase Detection Reagent was added and incubated for another 30 min at 27 °C, and then the luminescence was measured. Kinase inhibition rates were calculated per manufacturer's instructions.

[3] = biological target: PLK1 (Homo sapiens, UniProt P53350); experiment: In vitro kinase assay (Kinase-Glo / ADP-Glo); format: biochemical; conditions: TGI1002 1 µM; means of two independent experiments; read-out: Inhibitory effect (%)
Description: as §1

[4] = biological target: p38β (Homo sapiens, UniProt Q15759); experiment: In vitro kinase assay (Kinase-Glo / ADP-Glo); format: biochemical; conditions: TGI1002 1 µM; means of two independent experiments; read-out: Inhibitory effect (%)
Description: as §1

[5] = biological target: TrkA (Homo sapiens, UniProt P04629); experiment: In vitro kinase assay (Kinase-Glo / ADP-Glo); format: biochemical; conditions: TGI1002 1 µM; means of two independent experiments; read-out: Inhibitory effect (%)
Description: as §1

[6] = biological target: GSK3β (Homo sapiens, UniProt P49841); experiment: In vitro kinase assay (Kinase-Glo / ADP-Glo); format: biochemical; conditions: TGI1002 1 µM; means of two independent experiments; read-out: Inhibitory effect (%)
Description: as §1

[7] = biological target: FLT1(VEGFR1) (Homo sapiens, UniProt P17948); experiment: In vitro kinase assay (Kinase-Glo / ADP-Glo); format: biochemical; conditions: TGI1002 1 µM; means of two independent experiments; read-out: Inhibitory effect (%)
Description: as §1

[8] = biological target: KDR (Homo sapiens, UniProt P35968); experiment: In vitro kinase assay (Kinase-Glo / ADP-Glo); format: biochemical; conditions: TGI1002 1 µM; means of two independent experiments; read-out: Inhibitory effect (%)
Description: as §1

[9] = biological target: PDGFRβ (Homo sapiens, UniProt P09619); experiment: In vitro kinase assay (Kinase-Glo / ADP-Glo); format: biochemical; conditions: TGI1002 1 µM; means of two independent experiments; read-out: Inhibitory effect (%)
Description: as §1

[10] = biological target: PKAcr (Homo sapiens, UniProt P22612); experiment: In vitro kinase assay (Kinase-Glo / ADP-Glo); format: biochemical; conditions: TGI1002 1 µM; means of two independent experiments; read-out: Inhibitory effect (%)
Description: as §1

[11] = biological target: HER2 (Homo sapiens, UniProt P04626); experiment: In vitro kinase assay (Kinase-Glo / ADP-Glo); format: biochemical; conditions: TGI1002 1 µM; means of two independent experiments; read-out: Inhibitory effect (%)
Sequence of HER2 (P04626 23-1255): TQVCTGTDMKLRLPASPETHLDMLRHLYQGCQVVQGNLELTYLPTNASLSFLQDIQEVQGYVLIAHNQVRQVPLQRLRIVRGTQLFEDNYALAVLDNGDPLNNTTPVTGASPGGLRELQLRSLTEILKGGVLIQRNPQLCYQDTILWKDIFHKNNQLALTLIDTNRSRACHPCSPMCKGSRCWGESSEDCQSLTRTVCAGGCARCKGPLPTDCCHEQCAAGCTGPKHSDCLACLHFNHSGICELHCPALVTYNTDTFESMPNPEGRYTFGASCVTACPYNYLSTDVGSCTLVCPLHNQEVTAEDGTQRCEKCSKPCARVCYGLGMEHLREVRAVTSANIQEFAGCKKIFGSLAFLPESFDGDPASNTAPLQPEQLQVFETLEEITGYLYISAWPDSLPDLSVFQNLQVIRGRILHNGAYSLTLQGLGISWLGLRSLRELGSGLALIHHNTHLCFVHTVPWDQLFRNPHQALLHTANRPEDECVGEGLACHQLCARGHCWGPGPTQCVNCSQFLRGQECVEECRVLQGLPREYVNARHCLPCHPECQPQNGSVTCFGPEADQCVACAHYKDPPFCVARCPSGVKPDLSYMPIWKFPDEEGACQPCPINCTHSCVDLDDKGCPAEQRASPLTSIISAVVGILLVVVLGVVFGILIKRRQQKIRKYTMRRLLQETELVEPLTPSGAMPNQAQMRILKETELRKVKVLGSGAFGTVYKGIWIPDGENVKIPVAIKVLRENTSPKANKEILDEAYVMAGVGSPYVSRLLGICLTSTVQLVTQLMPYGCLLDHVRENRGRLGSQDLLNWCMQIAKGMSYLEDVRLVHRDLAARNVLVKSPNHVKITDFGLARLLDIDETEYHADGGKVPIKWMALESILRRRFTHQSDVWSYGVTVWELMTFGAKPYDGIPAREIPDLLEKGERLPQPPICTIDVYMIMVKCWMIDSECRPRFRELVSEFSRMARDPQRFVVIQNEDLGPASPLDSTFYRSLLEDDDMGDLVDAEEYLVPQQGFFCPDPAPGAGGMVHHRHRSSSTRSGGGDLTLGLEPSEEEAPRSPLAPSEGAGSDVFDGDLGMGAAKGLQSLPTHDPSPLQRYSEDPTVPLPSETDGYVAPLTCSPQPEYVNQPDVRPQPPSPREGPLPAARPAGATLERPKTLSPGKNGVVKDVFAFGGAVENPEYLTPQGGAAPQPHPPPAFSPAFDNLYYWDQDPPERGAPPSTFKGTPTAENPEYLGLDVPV
Description: as §1

[12] = biological target: TrkB (Homo sapiens, UniProt Q16620); experiment: In vitro kinase assay (Kinase-Glo / ADP-Glo); format: biochemical; conditions: TGI1002 1 µM; means of two independent experiments; read-out: Inhibitory effect (%)
Description: as §1

[13] = biological target: GSK3α (Homo sapiens, UniProt P49840); experiment: In vitro kinase assay (Kinase-Glo / ADP-Glo); format: biochemical; conditions: TGI1002 1 µM; means of two independent experiments; read-out: Inhibitory effect (%)
Description: as §1

[14] = biological target: AKT1 (Homo sapiens, UniProt P31749); experiment: In vitro kinase assay (Kinase-Glo / ADP-Glo); format: biochemical; conditions: TGI1002 1 µM; means of two independent experiments; read-out: Inhibitory effect (%)
Sequence of AKT1 (P31749 whole entry): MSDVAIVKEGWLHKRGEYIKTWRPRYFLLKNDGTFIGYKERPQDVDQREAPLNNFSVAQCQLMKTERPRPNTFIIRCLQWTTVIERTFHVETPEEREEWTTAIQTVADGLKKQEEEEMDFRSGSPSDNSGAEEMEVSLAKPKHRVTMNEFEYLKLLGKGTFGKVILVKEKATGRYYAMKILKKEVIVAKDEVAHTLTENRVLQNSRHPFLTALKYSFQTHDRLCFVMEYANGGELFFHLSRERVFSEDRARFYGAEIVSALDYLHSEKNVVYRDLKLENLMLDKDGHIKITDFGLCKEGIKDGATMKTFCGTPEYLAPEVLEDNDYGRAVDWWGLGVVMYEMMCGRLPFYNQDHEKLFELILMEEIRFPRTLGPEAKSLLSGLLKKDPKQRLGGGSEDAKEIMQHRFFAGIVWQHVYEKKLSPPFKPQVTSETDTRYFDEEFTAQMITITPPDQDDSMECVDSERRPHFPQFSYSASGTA
Description: as §1

[15] = biological target: CAMK1 (Homo sapiens, UniProt Q14012); experiment: In vitro kinase assay (Kinase-Glo / ADP-Glo); format: biochemical; conditions: TGI1002 1 µM; means of two independent experiments; read-out: Inhibitory effect (%)
Description: as §1

[16] = biological target: RON (Homo sapiens, UniProt Q04912); experiment: In vitro kinase assay (Kinase-Glo / ADP-Glo); format: biochemical; conditions: TGI1002 1 µM; means of two independent experiments; read-out: Inhibitory effect (%)
Description: as §1

[17] = biological target: PI3Kβ (Homo sapiens, UniProt P42338); experiment: In vitro kinase assay (Kinase-Glo / ADP-Glo); format: biochemical; conditions: TGI1002 1 µM; means of two independent experiments; read-out: Inhibitory effect (%)
Sequence of PI3Kβ (P42338 whole entry): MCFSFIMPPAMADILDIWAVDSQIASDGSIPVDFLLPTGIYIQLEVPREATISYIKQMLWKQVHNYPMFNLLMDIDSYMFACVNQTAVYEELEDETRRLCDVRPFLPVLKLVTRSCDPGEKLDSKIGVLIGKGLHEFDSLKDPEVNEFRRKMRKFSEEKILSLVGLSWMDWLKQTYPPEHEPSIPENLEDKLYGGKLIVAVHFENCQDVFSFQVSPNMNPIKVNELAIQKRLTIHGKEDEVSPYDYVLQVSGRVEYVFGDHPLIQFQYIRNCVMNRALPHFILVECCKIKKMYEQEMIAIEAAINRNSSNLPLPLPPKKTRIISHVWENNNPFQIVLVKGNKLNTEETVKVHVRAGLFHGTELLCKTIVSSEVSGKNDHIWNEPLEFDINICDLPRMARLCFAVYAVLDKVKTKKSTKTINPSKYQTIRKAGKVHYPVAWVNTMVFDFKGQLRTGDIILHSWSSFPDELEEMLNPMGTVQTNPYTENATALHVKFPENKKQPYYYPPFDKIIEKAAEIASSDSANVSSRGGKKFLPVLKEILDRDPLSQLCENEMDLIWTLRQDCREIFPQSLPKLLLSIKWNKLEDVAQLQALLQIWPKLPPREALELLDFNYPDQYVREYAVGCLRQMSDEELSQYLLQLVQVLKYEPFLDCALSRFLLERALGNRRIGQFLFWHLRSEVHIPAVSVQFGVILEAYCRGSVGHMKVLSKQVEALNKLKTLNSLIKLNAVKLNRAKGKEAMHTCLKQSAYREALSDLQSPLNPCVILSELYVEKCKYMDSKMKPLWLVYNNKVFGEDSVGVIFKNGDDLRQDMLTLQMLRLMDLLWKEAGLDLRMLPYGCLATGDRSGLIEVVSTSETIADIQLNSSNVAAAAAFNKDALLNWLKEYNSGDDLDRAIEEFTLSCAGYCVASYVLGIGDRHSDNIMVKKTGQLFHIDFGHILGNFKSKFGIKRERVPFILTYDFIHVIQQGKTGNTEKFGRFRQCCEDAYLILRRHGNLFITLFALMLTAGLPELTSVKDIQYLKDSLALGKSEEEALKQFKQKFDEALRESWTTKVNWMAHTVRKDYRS
Sequence of PI3Kβ (P27986 whole entry partner): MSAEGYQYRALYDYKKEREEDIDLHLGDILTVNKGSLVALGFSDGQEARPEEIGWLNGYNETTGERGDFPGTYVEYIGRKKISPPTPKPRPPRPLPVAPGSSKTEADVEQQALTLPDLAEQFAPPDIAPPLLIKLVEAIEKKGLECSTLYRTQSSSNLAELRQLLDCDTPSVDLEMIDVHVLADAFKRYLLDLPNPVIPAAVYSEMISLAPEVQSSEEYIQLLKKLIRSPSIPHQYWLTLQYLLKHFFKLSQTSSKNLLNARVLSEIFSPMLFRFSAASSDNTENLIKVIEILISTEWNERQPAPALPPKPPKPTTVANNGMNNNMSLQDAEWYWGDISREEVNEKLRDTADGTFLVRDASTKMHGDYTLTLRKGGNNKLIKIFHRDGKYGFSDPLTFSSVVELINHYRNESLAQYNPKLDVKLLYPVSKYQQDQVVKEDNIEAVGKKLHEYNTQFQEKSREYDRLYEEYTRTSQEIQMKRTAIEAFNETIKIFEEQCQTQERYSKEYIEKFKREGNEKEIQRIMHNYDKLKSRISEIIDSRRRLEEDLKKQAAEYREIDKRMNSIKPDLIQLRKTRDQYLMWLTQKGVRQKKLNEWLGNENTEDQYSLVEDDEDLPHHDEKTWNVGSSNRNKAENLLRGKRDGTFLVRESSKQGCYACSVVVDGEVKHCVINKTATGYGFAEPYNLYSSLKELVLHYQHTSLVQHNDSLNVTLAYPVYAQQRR
Description: as §1

[18] = biological target: PKAcβ (Homo sapiens, UniProt P22694); experiment: In vitro kinase assay (Kinase-Glo / ADP-Glo); format: biochemical; conditions: TGI1002 1 µM; means of two independent experiments; read-out: Inhibitory effect (%)
Description: as §1

[19] = biological target: PLK2 (Homo sapiens, UniProt Q9NYY3); experiment: In vitro kinase assay (Kinase-Glo / ADP-Glo); format: biochemical; conditions: TGI1002 1 µM; means of two independent experiments; read-out: Inhibitory effect (%)
Description: as §1

[20] = biological target: PKCα (Homo sapiens, UniProt P17252); experiment: In vitro kinase assay (Kinase-Glo / ADP-Glo); format: biochemical; conditions: TGI1002 1 µM; means of two independent experiments; read-out: Inhibitory effect (%)
Description: as §1

[21] = biological target: BLK (Homo sapiens, UniProt P51451); experiment: In vitro kinase assay (Kinase-Glo / ADP-Glo); format: biochemical; conditions: TGI1002 1 µM; means of two independent experiments; read-out: Inhibitory effect (%)
Description: as §1

[22] = biological target: AXL (Homo sapiens, UniProt P30530); experiment: In vitro kinase assay (Kinase-Glo / ADP-Glo); format: biochemical; conditions: TGI1002 1 µM; means of two independent experiments; read-out: Inhibitory effect (%)
Description: as §1

[23] = biological target: AKT2 (Homo sapiens, UniProt P31751); experiment: In vitro kinase assay (Kinase-Glo / ADP-Glo); format: biochemical; conditions: TGI1002 1 µM; means of two independent experiments; read-out: Inhibitory effect (%)
Sequence of AKT2 (P31751 whole entry): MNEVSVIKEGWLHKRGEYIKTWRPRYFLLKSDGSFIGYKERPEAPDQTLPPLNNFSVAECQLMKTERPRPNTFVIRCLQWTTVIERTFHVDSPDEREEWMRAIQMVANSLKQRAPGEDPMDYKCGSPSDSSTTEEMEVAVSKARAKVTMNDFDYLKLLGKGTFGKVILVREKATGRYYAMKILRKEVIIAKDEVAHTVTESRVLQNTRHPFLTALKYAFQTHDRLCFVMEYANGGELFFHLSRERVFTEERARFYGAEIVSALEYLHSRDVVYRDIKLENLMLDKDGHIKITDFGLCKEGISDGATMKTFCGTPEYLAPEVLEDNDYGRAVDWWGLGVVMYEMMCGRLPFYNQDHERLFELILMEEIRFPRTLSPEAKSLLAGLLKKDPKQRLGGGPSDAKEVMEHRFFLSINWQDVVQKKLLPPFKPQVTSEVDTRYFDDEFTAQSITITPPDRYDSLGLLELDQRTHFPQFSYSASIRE
Description: as §1

[24] = biological target: PKAcα (Homo sapiens, UniProt P17612); experiment: In vitro kinase assay (Kinase-Glo / ADP-Glo); format: biochemical; conditions: TGI1002 1 µM; means of two independent experiments; read-out: Inhibitory effect (%)
Description: as §1

[25] = biological target: FGFR1 (Homo sapiens, UniProt P11362); experiment: In vitro kinase assay (Kinase-Glo / ADP-Glo); format: biochemical; conditions: TGI1002 1 µM; means of two independent experiments; read-out: Inhibitory effect (%)
Description: as §1

[26] = biological target: BRAF(v599E) (Homo sapiens, UniProt P15056, V600E); experiment: In vitro kinase assay (Kinase-Glo / ADP-Glo); format: biochemical; conditions: TGI1002 1 µM; means of two independent experiments; read-out: Inhibitory effect (%)
Description: as §1

[27] = biological target: AMPK (A1/B1/G1) (Homo sapiens, UniProt Q13131); experiment: In vitro kinase assay (Kinase-Glo / ADP-Glo); format: biochemical; conditions: TGI1002 1 µM; means of two independent experiments; read-out: Inhibitory effect (%)
Description: as §1

[28] = system: BCR-ABL; experiment: Western blot of BCR-ABL expression in K562 cells; format: cell-based, human
Description: Protein samples (40 μg) were resolved on SDS-PAGE gels, transferred onto PVDF membranes (Millipore) and incubated overnight with primary antibodies to β-tubulin, BCR-ABL, p-BCR-ABL, SET, PP2Ac and p-PP2Ac. The membranes were incubated with horseradish peroxidase (HRP)-conjugated secondary antibody for 1 h, and the bands were visualized using an ECL detection kit following the manufacturer's instructions. For immunoprecipitation, cells were lysed in 20 mM Tris-HCl (pH 7.0), 150 mM NaCl, 1 mM EDTA, 1 mM MgCl and 0.5% NP-40 supplemented with a cocktail of protease and phosphatase inhibitors (Roche). Lysates (200 μg) were incubated with primary antibodies (1 μg) against SET or PP2Ac at 4 °C for 10 h, protein A/G plus agarose beads were then added for immunoprecipitation overnight at 4 °C. After wash, the immunoprecipitated proteins were separated by SDS-PAGE and analyzed by Western blotting.

[29] = biological target: T1, recombinant human SET protein (Homo sapiens, UniProt Q01105); experiment: Microscale thermophoresis (MST) binding to NT647-labeled SET; conditions: 15 μM NT647-labeled SET, PBS pH 8.0, 25 °C
T1 construct: Genes encoding the full length of human SET (GenBank No.: AAA60318.1) was synthesized; made in house; host or cells: E. coli (pET-21a)
T1 sequence (Q01105 1-277 isoform Q01105-2): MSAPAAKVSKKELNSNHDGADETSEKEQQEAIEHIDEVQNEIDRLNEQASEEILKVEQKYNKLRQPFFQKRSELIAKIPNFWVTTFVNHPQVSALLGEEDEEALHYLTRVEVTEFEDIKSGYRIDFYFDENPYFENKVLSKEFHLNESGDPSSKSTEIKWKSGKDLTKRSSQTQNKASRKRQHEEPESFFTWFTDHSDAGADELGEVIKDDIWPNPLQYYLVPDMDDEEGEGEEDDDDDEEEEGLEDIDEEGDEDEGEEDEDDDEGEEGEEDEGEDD
Description: Thermophoresis analysis was performed during 30 s on a NanoTemper Monolith NT.115 instrument (20% LED, 40% MST power) at 25 °C.

## Cc1ccc(NC(=O)c2cccc(CN3CCN(C)CC3)c2)cc1Oc1nccc(-c2cccnc2)n1.Cl [TGI1002, N-(4-methyl-3-((4-(pyridin-3-yl)-pyrimidin-2-yl)oxy)phenyl)-3-((4-methylpiperazin-1-yl)methyl)benzamide hydrochloride]
[1]
  IC50: 14.7 ± 2.61 µM
[2]
  inhibition at 1 µM: 4.3%
[3]
  inhibition at 1 µM: 1.63%
[4]
  inhibition at 1 µM: 0.2%
[5]
  inhibition at 1 µM: 3.11%
[6]
  inhibition at 1 µM: 2.59%
[7]
  inhibition at 1 µM: 1.97%
[8]
  inhibition at 1 µM: 0.64%
[9]
  inhibition at 1 µM: 17.2%
[10]
  inhibition at 1 µM: 1.45%
[11]
  inhibition at 1 µM: 7.88%
[12]
  inhibition at 1 µM: 5.58%
[13]
  inhibition at 1 µM: 2.6%
[14]
  inhibition at 1 µM: 5.07%
[15]
  inhibition at 1 µM: 4.93%
[16]
  inhibition at 1 µM: 0.14%
[17]
  inhibition at 1 µM: 0%
[18]
  inhibition at 1 µM: 6.5%
[19]
  inhibition at 1 µM: 3.52%
[20]
  inhibition at 1 µM: 5.57%
[21]
  inhibition at 1 µM: 3.39%
[22]
  inhibition at 1 µM: 3.03%
[23]
  inhibition at 1 µM: 4.72%
[24]
  inhibition at 1 µM: 5.96%
[25]
  inhibition at 1 µM: 9.71%
[26]
  inhibition at 1 µM: 3.61%
[27]
  inhibition at 1 µM: 0.19%
[28]
  expression level of BCR-ABL: not affected
[29]
  Kd: 1.66 ± 0.45 µM
